Test results: ChEMBL document CHEMBL4619763 (J Nat Prod, 2020)
Active and inactive are the calls of the source. The rule behind the calls is not given here.

Key:
Rattus norvegicus [1] = experiment: Diuretic activity in normotensive Wistar rat assessed as urine conductivity at 0.01 mg/kg, ip after 8 hrs (reference value: 24.87 +/- 0.54 mS/cm); format: functional
Rattus norvegicus [2] = experiment: Diuretic activity in normotensive Wistar rat assessed as urinary sodium excretion at 0.01 mg/kg, ip after 8 hrs (reference value: 81.56 +/- 13.10 mmol/L); format: functional
Rattus norvegicus [3] = experiment: Diuretic activity in normotensive Wistar rat assessed as urinary sodium excretion at 1 mg/kg, ip after 8 hrs (reference value: 81.56 +/- 13.10 mmol/L); format: functional
Rattus norvegicus [4] = experiment: Diuretic activity in normotensive Wistar rat assessed as urinary potassium excretion at 0.1 mg/kg, po administered via gavage after 8 hrs (reference value: 22.39 to 24.21 mmol/L); format: ADME, organism-based; details: in vivo
Rattus norvegicus [5] = experiment: Diuretic activity in normotensive Wistar rat assessed as urinary potassium excretion at 0.1 mg/kg, ip […] after 8 hrs (reference value: 22.33 +/- 2.81 mmol/L); format: ADME, organism-based; details: in vivo
Rattus norvegicus [6] = experiment: Diuretic activity in normotensive Wistar rat assessed as urinary chloride excretion at 1 mg/kg, po administered via gavage after 8 hrs (reference value: 135.10 to 143.70 mmol/L); format: functional
Rattus norvegicus [7] = experiment: Diuretic activity in normotensive Wistar rat assessed as urinary chloride excretion at 0.01 mg/kg, ip […] after 8 hrs (reference value: 103.30 +/- 10.25 mmol/L); format: functional
Rattus norvegicus [8] = experiment: Diuretic activity in normotensive Wistar rat assessed as urinary calcium excretion at 0.1 mg/kg, po administered via gavage after 8 hrs (reference value: 5.93 to 6.87 mg/dl); format: functional
Rattus norvegicus [9] = experiment: Diuretic activity in normotensive Wistar rat assessed as urinary calcium excretion at 1 mg/kg, po administered via gavage after 8 hrs (reference value: 5.93 to 6.87 mg/dl); format: functional
Rattus norvegicus [10] = experiment: Diuretic activity in normotensive Wistar rat assessed as urinary calcium excretion at 0.01 mg/kg, […] administered via gavage after 8 hrs (reference value: 5.28 +/- 0.09 mg/dl); format: functional
Rattus norvegicus [11] = experiment: Diuretic activity in normotensive Wistar rat assessed as urinary calcium excretion at 1 mg/kg, ip […] after 8 hrs (reference value: 5.28 +/- 0.09 mg/dl); format: functional
Rattus norvegicus [12] = experiment: Diuretic activity in normotensive Wistar rat assessed as urine pH at 0.1 mg/kg, po administered via gavage after 8 hrs in presence of hydrochlorothiazide (reference value: 6.14 to 6.21); format: functional
Rattus norvegicus [13] = experiment: Diuretic activity in normotensive Wistar rat assessed as urine conductivity at 0.1 mg/kg, po administered via gavage after 8 hrs in presence of atropine (reference value: 19.54 +/- 0.98 mS/cm); format: functional
Rattus norvegicus [14] = experiment: Diuretic activity in normotensive Wistar rat assessed as urinary sodium excretion at 0.1 mg/kg, po administered via gavage after 8 hrs in presence of amiloride (reference value: 61.82 to 80.81 mmol/L); format: functional
Rattus norvegicus [15] = experiment: Diuretic activity in normotensive Wistar rat assessed as urinary potassium excretion at 0.1 mg/kg, po administered via gavage after 8 hrs in presence of hydrochlorothiazide (reference value: 22.39 to 24.21 mmol/L); format: ADME, organism-based; details: in vivo
Rattus norvegicus [16] = experiment: Diuretic activity in normotensive Wistar rat assessed as urinary potassium excretion at 0.1 mg/kg, po administered via gavage after 8 hrs in presence of furosemide (reference value: 22.39 to 24.21 mmol/L); format: ADME, organism-based; details: in vivo
Rattus norvegicus [17] = experiment: Diuretic activity in normotensive Wistar rat assessed as urinary potassium excretion at 0.1 mg/kg, po administered via gavage after 8 hrs in presence of amiloride (reference value: 22.39 to 24.21 mmol/L); format: ADME, organism-based; details: in vivo
Rattus norvegicus [18] = experiment: Diuretic activity in normotensive Wistar rat assessed as urinary potassium excretion at 0.1 mg/kg, po administered via gavage after 8 hrs in presence of indomethacin (reference value: 22.39 to 24.21 mmol/L); format: ADME, organism-based; details: in vivo
Rattus norvegicus [19] = experiment: Diuretic activity in normotensive Wistar rat assessed as urinary chloride excretion at 0.1 mg/kg, po administered via gavage after 8 hrs in presence of indomethacin (reference value: 135.10 to 143.70 mmol/L); format: functional
Rattus norvegicus [20] = experiment: Diuretic activity in normotensive Wistar rat assessed as urinary calcium excretion at 0.1 mg/kg, po administered via gavage after 8 hrs in presence of hydrochlorothiazide (reference value: 5.93 to 6.87 mg/dl); format: functional
Rattus norvegicus [21] = experiment: Diuretic activity in normotensive Wistar rat assessed as urinary calcium excretion at 0.1 mg/kg, po administered via gavage after 8 hrs in presence of furosemide (reference value: 5.93 to 6.87 mg/dl); format: functional
[22] = Toxicity in normotensive Wistar rat assessed as changes in plasma sodium level at 0.1 mg/kg, po administered for 7 days; format: organism-based; details: in vivo, 168 h
[23] = Toxicity in spontaneous hypertensive Wistar rat assessed as changes in plasma potassium level at 0.1 mg/kg, po administered for 7 days; format: organism-based; details: in vivo, 168 h
[24] = Toxicity in normotensive Wistar rat assessed as changes in plasma chloride level at 0.1 mg/kg, po administered for 7 days; format: organism-based; details: in vivo, 168 h
[25] = Toxicity in spontaneous hypertensive Wistar rat assessed as changes in plasma calcium level at 0.1 mg/kg, po administered for 7 days; format: organism-based; details: in vivo, 168 h
[26] = Toxicity in normotensive Wistar rat assessed as changes in plasma AST level at 0.1 mg/kg, po administered for 7 days; format: organism-based; details: in vivo, 168 h
[27] = Toxicity in spontaneous hypertensive Wistar rat assessed as changes in plasma AST level at 0.1 mg/kg, po administered for 7 days; format: organism-based; details: in vivo, 168 h
[28] = Toxicity in normotensive Wistar rat assessed as changes in plasma uric acid level at 0.1 mg/kg, po administered for 7 days; format: organism-based; details: in vivo, 168 h
[29] = Toxicity in normotensive Wistar rat assessed as changes in plasma nitrite acid level at 0.1 mg/kg, po administered for 7 days; format: organism-based; details: in vivo, 168 h
[30] = Toxicity in spontaneous hypertensive Wistar rat assessed as changes in urinary creatinine at 0.1 mg/kg, po administered for 7 days; format: organism-based; details: in vivo, 168 h
Rattus norvegicus [31] = experiment: Cardioprotective activity in spontaneous hypertensive Wistar rat assessed as effect on heart weight at 0.1 mg/kg, po administered for 7 days; format: functional, organism-based
Rattus norvegicus [32] = experiment: In vivo antioxidant activity in Wistar rat model of hypertension-induced oxidative stress assessed as reduction in nitrite level in renal tissue at 0.1 mg/kg, po administered via gavage for 7 days by Griess reagent based assay; format: functional, organism-based
Rattus norvegicus [33] = experiment: Renal protective activity in spontaneous hypertensive Wistar rat assessed as reduction in hypertension-induced glomerular size at 0.1 mg/kg, po administered via gavage for 7 days by hematoxylin and eosin staining based microscopic analysis; format: functional, organism-based
Rattus norvegicus [34] = experiment: Anti-urolithic activity in normotensive Wistar rats assessed as reduction in CaOx crystal formation in cumulative urine at 0.1 mg/kg, po administered via gavage in presence of sodium oxalate by Neubauer counting chamber method relative to control; format: functional; design: scale not given: the % may be the effect or the level left
[35] = Anti-urolithic activity in synthetic urine assessed as reduction in CaOx crystal formation at 0.01 mg/mL in presence of sodium oxalate after 60 mins by Neubauer counting chamber method relative to control; format: functional; design: scale not given: the % may be the effect or the level left
[36] = Anti-urolithic activity in synthetic urine assessed as decrease in absorbance at 0.1 mg/mL after 60 mins relative to control; format: functional; design: scale not given: the % may be the effect or the level left

Q: Which Activity (Rattus norvegicus [1]) does the source give for C[C@@H]1O[C@@H](Oc2c(-c3ccc(O)cc3)oc3cc(O)cc(O)c3c2=O)[C@H](O)[C@H](O)[C@H]1O [AFZELIN] here?
A: Its Activity is 26.4 mS/cm.

Q: And the Activity (Rattus norvegicus [2])?
A: Its Activity is 51.84 mmol/L.

Q: What about the Activity (Rattus norvegicus [3]) of the same compound?
A: Its Activity is 62.46 mmol/L.

Q: What about the Activity (Rattus norvegicus [4]) of the same compound?
A: The Activity was 24.2 to 24.7 mmol/L.

Q: What about the Activity (Rattus norvegicus [5]) of the same compound?
A: Its Activity is 12.79 mmol/L.

Q: And the Activity (Rattus norvegicus [6])?
A: Its Activity is 165.2 mmol/L.

Q: What about the Activity (Rattus norvegicus [7]) of the same compound?
A: Its Activity is 96.18 mmol/L.

Q: What about the Activity (Rattus norvegicus [8]) of the same compound?
A: Its Activity is 5.22 to 6.33 mg/dL.

Q: What about the Activity (Rattus norvegicus [9]) of the same compound?
A: Its Activity is 6.08 mg/dL.

Q: And the Activity (Rattus norvegicus [10])?
A: The Activity was 5.6 mg/dL.

Q: And the Activity (Rattus norvegicus [11])?
A: Its Activity is 5.46 mg/dL.

Q: What about the pH (Rattus norvegicus [12]) of the same compound?
A: Its pH is 6.42.

Q: What about the Activity (Rattus norvegicus [13]) of the same compound?
A: Its Activity is 19.09 mS/cm.

Q: What about the Activity (Rattus norvegicus [14]) of the same compound?
A: The Activity was 79.24 mmol/L.

Q: And the Activity (Rattus norvegicus [15])?
A: The Activity was 33.28 mmol/L.

Q: What about the Activity (Rattus norvegicus [16]) of the same compound?
A: The Activity was 20.41 mmol/L.

Q: And the Activity (Rattus norvegicus [17])?
A: Its Activity is 1.95 mmol/L.

Q: And the Activity (Rattus norvegicus [18])?
A: The Activity was 17.87 mmol/L.

Q: And the Activity (Rattus norvegicus [19])?
A: Its Activity is 284.5 mmol/L.

Q: What about the Activity (Rattus norvegicus [20]) of the same compound?
A: The Activity was 4.54 mg/dL.

Q: What about the Activity (Rattus norvegicus [21]) of the same compound?
A: The Activity was 5.36 mg/dL.

Q: And the Activity [22]?
A: The Activity was “Non-Toxic”.

Q: What about the Activity [23] of the same compound?
A: The Activity was “Non-Toxic”.

Q: What about the Activity [24] of the same compound?
A: Its Activity is “Non-Toxic”.

Q: What about the Activity [25] of the same compound?
A: Its Activity is “Non-Toxic”.

Q: And the Activity [26]?
A: The Activity was “Non-Toxic”.

Q: What about the Activity [27] of the same compound?
A: The Activity was “Non-Toxic”.

Q: What about the Activity [28] of the same compound?
A: Its Activity is “Non-Toxic”.

Q: And the Activity [29]?
A: Its Activity is “Non-Toxic”.

Q: What about the Activity [30] of the same compound?
A: Its Activity is “Non-Toxic”.

Q: And the Activity (Rattus norvegicus [31])?
A: The Activity was “inactive”.

Q: What about the Activity (Rattus norvegicus [32]) of the same compound?
A: The Activity was “Active”.

Q: What about the Activity (Rattus norvegicus [33]) of the same compound?
A: The Activity was “Active”.

Q: What about the Activity (Rattus norvegicus [34]) of the same compound?
A: The Activity was 41.3%.

Q: And the Activity [35]?
A: Its Activity is 57.47%.

Q: And the Activity [36]?
A: Its Activity is 27.21%.
